Assay results as given in patent publication US20140171404A1, “Autotaxin inhibitors” (NOVARTIS AG, priority 2012, published 2014).

Each compound was assayed against T1, Recombinant human ATX (Homo sapiens, UniProt Q13822) (assay: Assessing ATX inhibition: released choline, Amplex Red fluorescence). Conditions: not given.
T1 construct: made in house; host or cells: human embryonic kidney (HEK) cells
Format: biochemical
Procedure: LPC (oleoyl (18:1)) was purchased from Avanti Polar Lipids (Alabaster; AL) and solubilized in methanol to 20 mM. Amplex Red was obtained from Invitrogen Life Technologies (Paisley, UK) and dissolved in DMSO to 10 mM. Choline oxidase and horseradish peroxidase (HRP) were obtained from Sigma Aldrich (Dorset, UK) and dissolved in HBSS to 20 U/ml and 200 U/ml respectively. All reagents were stored at −20° C. in single use aliquots. All experimental measurements were performed in assay buffer made up immediately prior to use (HBSS, 0.01% BSA essentially fatty acid free).
Recombinant human ATX was prepared at Novartis (Basel, CH) in a human embryonic kidney (HEK) cell preparation, and stored in single use aliquots of […] (26 μM) stocks stored at −80° C.
All experimental measurements were performed in black 384 well polystyrene (low volume, round bottom, Corning (3676)) plates. PerkinElmer EnVision (Fluorescence Intensity/Absorbance Monochromator) or Tecan Infinite 200 PRO series plate reader was used to detect change in fluorescent intensity.
ATX activity was determined by measurement of released choline in reactions containing ATX (10 nM), choline oxidase (0.1 U/ml), HRP (100 U/ml), amplex red (50 μM) and LPC 18:1 (10 μM). Compounds of the invention were prepared as 10 point serial dilutions from 1 μM in duplicate and pre-incubated with ATX at 37° C. for 20 minutes prior to the addition of remaining reagents. The liberated choline was measured from changes in fluorescence intensity (λex 530 nm, λem 590 nm) of the product resurofin at 37° C. every 2 minutes over a 40-minute period. ATX activity was measured as a slope of the linear portion of the progress curve, typically between 14 to 24 minutes.
Slope data was exported to Graphpad prism (Graphpad software, San Diego, Calif.) where data was fitted to equation 1.
Y=Bottom+(Top−Bottom)/(1+10̂((Log IC50−X)*HillSlope)) Equation 1: […]

| Structure (SMILES) | IC50 [nM] |
| --- | --- |
| O=C(NC1CC2CCC(C1)N2C(=O)CCCc1c[nH]nn1)OCc1cc(Cl)cc(Cl)c1 (stereo not shown) [Example 47, 3,5-Dichlorobenzyl (8-(4-(1H-1,2,3-triazol-4-yl)butanoyl)-8-azabicyclo[3.2.1]octan-3-yl)carbamate] | 3160 |

Same assay, conditions: ATX 10 nM, LPC 18:1 10 μM, pre-incubated with ATX at 37° C. for 20 minutes; Table 1, exemplified compounds; read-out: IC50

| IC50 [nM] | Structure (SMILES) |
| --- | --- |
| 131 | O=C(CCc1cc(O)no1)NCC1CCN(C(=O)OCc2cc(Cl)cc(Cl)c2)CC1 [Example 33, 3,5-Dichlorobenzyl 4-((3-(3-hydroxyisoxazol-5-yl)propanamido)methyl)piperidine-1-carboxylate] |
| 282 | O=C(NCCCN1CCN(C(=O)OCc2cc(Cl)cc(Cl)c2)CC1)c1c[nH]nn1 [Example 34, 3,5-Dichlorobenzyl 4-(3-(1H-1,2,3-triazole-4-carboxamido)propyl)piperazine-1-carboxylate] |
| 175 | CN(CCC1CCN(C(=O)OCc2cc(Cl)cc(Cl)c2)CC1)C(=O)c1c[nH]nn1 [Example 35, 3,5-Dichlorobenzyl 4-(2-(N-methyl-1H-1,2,3-triazole-4-carboxamido)ethyl)piperidine-1-carboxylate] |
| 55 | O=C(CCCc1c[nH]nn1)NC1CCN(C(=O)OCc2cc(F)cc(Cl)c2)CC1 [Example 37, 3-Chloro-5-fluorobenzyl 4-(4-(1H-1,2,3-triazol-4-yl)butanamido)piperidine-1-carboxylate] |
| 21 | O=C(CCCc1c[nH]nn1)NC1CCN(C(=O)/C=C/c2cc(Cl)cc(Cl)c2)CC1 [Example 38, (E)-N-(1-(3-(3,5-Dichlorophenyl)acryloyl)piperidin-4-yl)-4-(1H-1,2,3-triazol-4-yl)butanamide] |
| 77 | O=C(CCCc1c[nH]nn1)NC1CCN(C(=O)/C=C/c2ccc(Cl)cc2Cl)CC1 [Example 39, (E)-N-(1-(3-(2,4-Dichlorophenyl)acryloyl)piperidin-4-yl)-4-(1H-1,2,3-triazol-4-yl)butanamide] |
| 135 | O=C(O)CCCCCCC(=O)NC1CCN(C(=O)OCc2cc(Cl)cc(Cl)c2)CC1 [Example 40, 8-((1-(((3,5-Dichlorobenzyl)oxy)carbonyl)piperidin-4-yl)amino)-8-oxooctanoic acid] |
| 18 | O=C(CCCc1cnn[nH]1)NCC1CCN(C(=O)OCc2cc(Cl)cc(Cl)c2)CC1 [Example 41, 3,5-Dichlorobenzyl 4-((4-(1H-1,2,3-triazol-5-yl)butanamido)methyl)piperidine-1-carboxylate] |
| 119 | O=C(CCCc1c[nH]nn1)NC1CCN(C(=O)CCc2cc(Cl)cc(Cl)c2)CC1 [Example 42, N-(1-(3-(3,5-Dichlorophenyl)propanoyl)piperidin-4-yl)-4-(1H-1,2,3-triazol-4-yl)butanamide] |
| 113 | O=C(CCCc1c[nH]nn1)NC1CCN(C(=O)CCc2ccc(Cl)cc2Cl)CC1 [Example 43, N-(1-(3-(2,4-Dichlorophenyl)propanoyl)piperidin-4-yl)-4-(1H-1,2,3-triazol-4-yl)butanamide] |
| 8 | N#Cc1cc(Cl)cc(COC(=O)N2CCC(NC(=O)CCCc3c[nH]nn3)CC2)c1 [Example 44, 3-Chloro-5-cyanobenzyl 4-(4-(1H-1,2,3-triazol-4-yl)butanamido)piperidine-1-carboxylate] |
| 731 | O=C(CCCc1c[nH]nn1)NC1CCCN(C(=O)OCc2cc(Cl)cc(Cl)c2)CC1 (stereo not shown) [Example 46, 3,5-Dichlorobenzyl 4-(4-(1H-1,2,3-triazol-4-yl)butanamido)azepane-1-carboxylate] |
| 791 | O=C(NC1CCCN(C(=O)CCCc2c[nH]nn2)CC1)OCc1cc(Cl)cc(Cl)c1 (stereo not shown) [Example 48, 3,5-Dichlorobenzyl (1-(4-(1H-1,2,3-triazol-4-yl)butanoyl)azepan-4-yl)carbamate] |
| 12 | O=C(CCCc1c[nH]nn1)NC1CN(C(=O)OCc2cc(Cl)cc(Cl)c2)C1 [Example 50, 3,5-Dichlorobenzyl 3-(4-(1H-1,2,3-triazol-4-yl)butanamido)azetidine-1-carboxylate] |
| 6 | Cc1cc(C)cc(COC(=O)N2CCC(NC(=O)CCCc3c[nH]nn3)CC2)c1 [Example 51, 3,5-Dimethyl benzyl 4-(4-(1H-1,2,3-triazol-4-yl)butanamido)piperidine-1-carboxylate] |
| 42 | O=C(NC1CCN(C(=O)CCCCc2c[nH]nn2)CC1)OCc1cc(Cl)cc(Cl)c1 [Example 52, 3,5-Dichlorobenzyl (1-(5-(1H-1,2,3-triazol-4-yl)pentanoyl)piperidin-4-yl)carbamate] |
| 40 | O=C(CCCc1c[nH]nn1)NC1CCN(C(=O)OCc2ccc(C(F)(F)F)cc2)CC1 [Example 53, 4-(Trifluoromethyl)benzyl 4-(4-(1H-1,2,3-triazol-4-yl)butanamido)piperidine-1-carboxylate] |
| 87 | O=C(CCCc1c[nH]nn1)NC1CCN(C(=O)CCc2ccc(C(F)(F)F)cc2)CC1 [Example 54, 4-(1H-1,2,3-Triazol-4-yl)-N-(1-(3-(4-(trifluoromethyl)phenyl)propanoyl)piperidin-4-yl)butanamide] |
| 154 | O=C(CCCc1c[nH]nn1)NC1CCN(C(=O)COc2cc(Cl)cc(Cl)c2)CC1 [Example 55, N-(1-(2-(3,5-Dichlorophenoxy)acetyl)piperidin-4-yl)-4-(1H-1,2,3-triazol-4-yl)butanamide] |
| 17 | O=C(CCc1cnn[nH]1)NCC1CCN(C(=O)OCc2cc(Cl)cc(Cl)c2)CC1 [Example 57, 3,5-Dichlorobenzyl 4-((3-(1H-1,2,3-triazol-5-yl)propanamido)methyl)piperidine-1-carboxylate] |
| 206 | O=C(CCCc1c[nH]nn1)NC1CCN(C(=O)OCc2ccc(Cl)cc2Cl)CC1 [Example 58, 2,4-Dichlorobenzyl 4-(4-(1H-1,2,3-triazol-4-yl)butanamido)piperidine-1-carboxylate] |
| 24 | O=C(CCCc1c[nH]nn1)NC1CCN(C(=O)OCCc2cc(Cl)cc(Cl)c2)CC1 [Example 59, 3,5-Dichlorophenethyl 4-(4-(1H-1,2,3-triazol-4-yl)butanamido)piperidine-1-carboxylate] |
| 7 | O=C(CCC1CCN(C(=O)OCc2cc(Cl)cc(Cl)c2)CC1)NCc1c[nH]nn1 [Example 60, 3,5-Dichlorobenzyl 4-(3-(((1H-1,2,3-triazol-4-yl)methyl)amino)-3-oxopropyl)piperidine-1-carboxylate] |
| 15 | O=C(CC1CCN(C(=O)OCc2cc(Cl)cc(Cl)c2)CC1)NCCc1c[nH]nn1 [Example 61, 3,5-Dichlorobenzyl 4-(2-((2-(1H-1,2,3-triazol-4-yl)ethyl)amino)-2-oxoethyl)piperidine-1-carboxylate] |
| 5 | Cc1cc(COC(=O)N2CCC(NC(=O)CCCc3c[nH]nn3)CC2)cc(C(F)(F)F)c1 [Example 62, 3-Methyl-5-(trifluoromethyl)benzyl 4-(4-(1H-1,2,3-triazol-4-yl)butanamido)piperidine-1-carboxylate] |

| Structure (SMILES) | IC50 [nM] |
| --- | --- |
| O=C(CCCc1c[nH]nn1)NC1CC2CCC(C1)N2C(=O)OCc1cc(Cl)cc(Cl)c1 (stereo not shown) [Example 45, 3,5-Dichlorobenzyl 3-(4-(1H-1,2,3-triazol-4-yl)butanamido)-8-azabicyclo[3.2.1]octane-8-carboxylate] | 555 |
| Cc1cc(Cl)cc(COC(=O)N2CCC(NC(=O)CCCc3c[nH]nn3)CC2)c1 [Example 56, 3-Chloro-5-methylbenzyl 4-(4-(1H-1,2,3-triazol-4-yl)butanamido)piperidine-1-carboxylate] | 10 |
